Literature values, collected in patent EP0424512B1, “ANTIMETASTATIC PEPTIDES” (SRI INTERNATIONAL, priority 1989, dated 1990).

Tested on: human fibrosarcoma HT-1080 and Chinese hamster ovary cells
Settings: relative to laminin

**Q.** With “CDPGYIGSR [nine amino acid peptide from domain III of laminin B₁ chain]” as the sequence, how does the “activity of laminin in cell attachment on a molar basis” value read?
**A.** 0.5-1%
